Source: patent publication US20250228882A1, “ORALLY-BIOAVAILABLE NUCLEOSIDE ANALOGS” (Venatorx Pharmaceuticals, Inc., priority 2022, published 2025)

Experiment: Bidirectional Caco-2 permeability assay
Format: in vitro ADME
Conditions: human, Caco-2
Experimental: The bidirectional permeability of compounds across the Caco-2 cell monolayer was assessed. The Caco-2 model is a widely used in vitro model for small intestinal absorption and potential for efflux. Cell culture. Caco-2 cells were grown in DMEM supplemented with 10% fetal bovine serum (FBS), 1% Penicillin-Streptomycin and 1% MEMNEAA. The cells were incubated at 37° C., 5% CO2/95% air and saturated humidity. After reaching 80-90% confluency, the cells were gently detached with trypsin. Cells at passage 39 were seeded on the 24-well BD insert system at the density of 8×10^4 cells/cm^2 and cultured for 19 days with medium changed every 2-3 days. Measure the transepithelial electrical resistance (TEER) value of each well. The wells can be used only when their TEER values are greater than 600 Ohms/cm^2.
Transport assay. After removing the cell culture medium from the 24-well insert plate, the cells were rinsed with warm transport buffer. Appropriate dosing and receiving solutions were applied to the donor and receiver chambers to initiate the transport assay in apical to basolateral (A to B) or basolateral to apical (B to A) directions (500 and 1300 μL for apical and basolateral wells, respectively). Duplicate wells in each direction were used for the test compound and control compound. The plate was incubated in CO2 incubator at 37° C., with 5% CO2/95% air and saturated humidity without shaking. The sample after 10-minute incubation was used as the To sample, and the sample after 90-minute incubation was used as the T90 sample. To and T90 samples were collected from the donor and receiver side of each well at the designed timepoint, mixed with the transport buffer and acetonitrile/MeOH (1:1, v/v) and the internal standard for LC/MS/MS analysis. All samples were vortexed and centrifuged at 4000 rpm at 4° C. for 15 minutes, diluted with pure water and stored at 4° C. before bioanalysis by LC/MS/MS.
Sample analysis. The concentrations of test compounds and control compounds in Caco-2 cells were quantitatively determined by LC/MS/MS method after protein precipitation.
Calculations. The apparent permeability (Papp, cm/s), efflux ratio (ER) and recovery parameters were calculated for Caco-2 drug transport assay using the following equations: […]
where VR is the solution volume in the receiver chamber (0.4 mL on the apical side, 1.2 mL on the basolateral side); Area is the surface area for the insert membrane, i.e., 0.3 cm^2 for the area of the monolayer; Time is incubation time, expressed in seconds, i. e., 5400 s (90 min) for the current experiment; Co is the initial concentration of test compound or peak area ratio of control compounds in the donor chamber (M); VD is the volume in the donor chambers (0.4 mL on the apical side, 1.2 mL on the basolateral side); CD and CR are the final concentrations of test compounds or peak area ratio of control compounds in donor and receiver chambers, respectively.
Compounds with Papp<1.0 are classified as low permeability, Papp between 1-10 are classified as medium permeability, and Papp>10 are classified as high permeability. An efflux ratio (ER)>2 indicates the compounds are potential substrates for intestinal cell efflux transporters.

`CCCCC(=O)Nc1ncnn2c([C@]3(C#N)O[C@H](COC(=O)CC4CCCCCC4)[C@@H](OC(=O)[C@@H](N)C(C)(C)C)[C@H]3O)ccc12` [Compound 61, (2R,3S,4R,5R)-5-cyano-2-((2-cycloheptylacetoxy)methyl)-4-hydroxy-5-(4-pentanamidopyrrolo[2,1-f][1,2,4]triazin-7-yl)tetrahydrofuran-3-yl (S)-2-amino-3,3-dimethylbutanoate] gave a Papp A→B at 90 min of 1.07 ×10⁻⁶ cm/s, a Papp B→A at 90 min of 0.65 ×10⁻⁶ cm/s and an efflux ratio at 90 min of 0.6.

Molecule `CCC(CC)C(=O)Nc1ncnn2c([C@]3(C#N)O[C@H](COC(=O)CC4CCCCCC4)[C@@H](OC(=O)[C@@H](N)C(C)(C)C)[C@H]3O)ccc12` [Compound 62, (2R,3S,4R,5R)-5-cyano-2-((2-cycloheptylacetoxy)methyl)-5-(4-(2-ethylbutanamido)pyrrolo[2,1-f][1,2,4]triazin-7-yl)-4-hydroxytetrahydrofuran-3-yl (S)-2-amino-3,3-dimethylbutanoate] has a Papp A→B at 90 min of 1.4 ×10⁻⁶ cm/s, a Papp B→A at 90 min of 0.89 ×10⁻⁶ cm/s and an efflux ratio at 90 min of 0.64.

In the case of `COC(C)(C)C(=O)Nc1ncnn2c([C@]3(C#N)O[C@H](COC(=O)CC4CCCCCC4)[C@@H](OC(=O)[C@@H](N)C(C)(C)C)[C@H]3O)ccc12` [Compound 63, (2R,3S,4R,5R)-5-cyano-2-((2-cycloheptylacetoxy)methyl)-4-hydroxy-5-(4-(2-methoxy-2-methylpropanamido)pyrrolo[2,1-f][1,2,4]triazin-7-yl)tetrahydrofuran-3-yl (S)-2-amino-3,3-dimethylbutanoate], the Papp A→B at 90 min is reported as 4.01 ×10⁻⁶ cm/s, the Papp B→A at 90 min is reported as 2.79 ×10⁻⁶ cm/s and the efflux ratio at 90 min is reported as 0.7.

For `CCCCOC(=O)Nc1ncnn2c([C@]3(C#N)O[C@H](COC(=O)CC4CCCCCC4)[C@@H](OC(=O)[C@@H](N)C(C)(C)C)[C@H]3O)ccc12` [Compound 65, (2R,3S,4R,5R)-5-(4-((butoxycarbonyl)amino)pyrrolo[2,1-f][1,2,4]triazin-7-yl)-5-cyano-2-((2-cycloheptylacetoxy)methyl)-4-hydroxytetrahydrofuran-3-yl (S)-2-amino-3,3-dimethylbutanoate], the Papp A→B at 90 min was 0.79 ×10⁻⁶ cm/s, the Papp B→A at 90 min was 0.5 ×10⁻⁶ cm/s and the efflux ratio at 90 min was 0.62.

With `CCOC(C)(C)C(=O)Nc1ncnn2c([C@]3(C#N)O[C@H](COC(=O)CC4CCCC4)[C@@H](OC(=O)[C@@H](N)C(C)(C)C)[C@H]3O)ccc12` [Compound 66, (2R,3S,4R,5R)-5-cyano-2-((2-cyclopentylacetoxy)methyl)-5-(4-(2-ethoxy-2-methylpropanamido)pyrrolo[2,1-f][1,2,4]triazin-7-yl)-4-hydroxytetrahydrofuran-3-yl (S)-2-amino-3,3-dimethylbutanoate] the Papp A→B at 90 min was 5.1 ×10⁻⁶ cm/s, the Papp B→A at 90 min was 5.79 ×10⁻⁶ cm/s and the efflux ratio at 90 min was 1.13.

`CCOC(C)(C)C(=O)Nc1ncnn2c([C@]3(C#N)O[C@H](COC(=O)CC4CCCCCC4)[C@@H](OC(=O)[C@@H](N)C(C)(C)C)[C@H]3O)ccc12` [Compound 67, (2R,3S,4R,5R)-5-cyano-2-((2-cycloheptylacetoxy)methyl)-5-(4-(2-ethoxy-2-methylpropanamido)pyrrolo[2,1-f][1,2,4]triazin-7-yl)-4-hydroxytetrahydrofuran-3-yl (S)-2-amino-3,3-dimethylbutanoate] showed a Papp A→B at 90 min of 4.78 ×10⁻⁶ cm/s, a Papp B→A at 90 min of 2.54 ×10⁻⁶ cm/s and an efflux ratio at 90 min of 0.53.

`COC(C)(C)C(=O)Nc1ncnn2c([C@]3(C#N)O[C@H](COC(=O)CC4CCCCC4)[C@@H](OC(=O)[C@H](N)C(C)(C)C)[C@H]3O)ccc12` [Compound 68, (2R,3S,4R,5R)-5-cyano-2-((2-cyclohexylacetoxy)methyl)-4-hydroxy-5-(4-(2-methoxy-2-methylpropanamido)pyrrolo[2,1-f][1,2,4]triazin-7-yl)tetrahydrofuran-3-yl (R)-2-amino-3,3-dimethylbutanoate] gave a Papp A→B at 90 min of 3.22 ×10⁻⁶ cm/s, a Papp B→A at 90 min of 4.04 ×10⁻⁶ cm/s and an efflux ratio at 90 min of 1.25.

`CCC(CC)C(=O)Nc1ncnn2c([C@]3(C#N)O[C@H](COC(=O)CC4CCCCC4)[C@@H](OC(=O)[C@H](N)C(C)(C)C)[C@H]3O)ccc12` [Compound 69, (2R,3S,4R,5R)-5-cyano-2-((2-cyclohexylacetoxy)methyl)-5-(4-(2-ethylbutanamido)pyrrolo[2,1-f][1,2,4]triazin-7-yl)-4-hydroxytetrahydrofuran-3-yl (R)-2-amino-3,3-dimethylbutanoate] gave a Papp A→B at 90 min of 3.19 ×10⁻⁶ cm/s, a Papp B→A at 90 min of 4.38 ×10⁻⁶ cm/s and an efflux ratio at 90 min of 1.37.

With `COC(C)(C)C(=O)Nc1ncnn2c([C@]3(C#N)O[C@H](COC(=O)CC4CCCCCC4)[C@@H](OC(=O)[C@H](N)C(C)(C)C)[C@H]3O)ccc12` [Compound 70, (2R,3S,4R,5R)-5-cyano-2-((2-cycloheptylacetoxy)methyl)-4-hydroxy-5-(4-(2-methoxy-2-methylpropanamido)pyrrolo[2,1-f][1,2,4]triazin-7-yl)tetrahydrofuran-3-yl (R)-2-amino-3,3-dimethylbutanoate] the Papp A→B at 90 min was 2.13 ×10⁻⁶ cm/s, the Papp B→A at 90 min was 2.2 ×10⁻⁶ cm/s and the efflux ratio at 90 min was 1.03.

`CCCCOC(C)(C)C(=O)Nc1ncnn2c([C@]3(C#N)O[C@H](COC(=O)CC4CCCC4)[C@@H](OC(=O)[C@@H](N)C(C)(C)C)[C@H]3O)ccc12` [Compound 71, (2R,3S,4R,5R)-5-(4-(2-butoxy-2-methylpropanamido)pyrrolo[2,1-f][1,2,4]triazin-7-yl)-5-cyano-2-((2-cyclopentylacetoxy)methyl)-4-hydroxytetrahydrofuran-3-yl(S)-2-amino-3,3-dimethylbutanoate] showed a Papp A→B at 90 min of 0.67 ×10⁻⁶ cm/s, a Papp B→A at 90 min of 8.18 ×10⁻⁶ cm/s and an efflux ratio at 90 min of 12.1.

`CCCCOC(C)(C)C(=O)Nc1ncnn2c([C@]3(C#N)O[C@H](COC(=O)CC4CCCCCC4)[C@@H](OC(=O)[C@@H](N)C(C)(C)C)[C@H]3O)ccc12` [Compound 72, (2R,3S,4R,5R)-5-(4-(2-butoxy-2-methylpropanamido)pyrrolo[2,1-f][1,2,4]triazin-7-yl)-5-cyano-2-((2-cycloheptylacetoxy)methyl)-4-hydroxytetrahydrofuran-3-yl(S)-2-amino-3,3-dimethylbutanoate] gave a Papp A→B at 90 min of 0.09 ×10⁻⁶ cm/s, a Papp B→A at 90 min of 7.6 ×10⁻⁶ cm/s and an efflux ratio at 90 min of 88.8.

In the case of `CCCCOC(C)(C)C(=O)Nc1ncnn2c([C@]3(C#N)O[C@H](COC(=O)CC4CCCCC4)[C@@H](OC(=O)[C@H](N)C(C)(C)C)[C@H]3O)ccc12` [Compound 73, (2R,3S,4R,5R)-5-(4-(2-butoxy-2-methylpropanamido)pyrrolo[2,1-f][1,2,4]triazin-7-yl)-5-cyano-2-((2-cyclohexylacetoxy)methyl)-4-hydroxytetrahydrofuran-3-yl (R)-2-amino-3,3-dimethylbutanoate], the Papp A→B at 90 min is reported as 0.24 ×10⁻⁶ cm/s, the Papp B→A at 90 min is reported as 0.53 ×10⁻⁶ cm/s and the efflux ratio at 90 min is reported as 2.23.

With `CCCCOC(C)(C)C(=O)Nc1ncnn2c([C@]3(C#N)O[C@H](COC(=O)CC4CCCCC4)[C@@H](OC(=O)[C@@H](N)C(C)(C)C)[C@H]3O)ccc12` [Compound 74, (2R,3S,4R,5R)-5-(4-(2-butoxy-2-methylpropanamido)pyrrolo[2,1-f][1,2,4]triazin-7-yl)-5-cyano-2-((2-cyclohexylacetoxy)methyl)-4-hydroxytetrahydrofuran-3-yl (S)-2-amino-3,3-dimethylbutanoate] the Papp A→B at 90 min was 0.41 ×10⁻⁶ cm/s, the Papp B→A at 90 min was 0.41 ×10⁻⁶ cm/s and the efflux ratio at 90 min was 1.

For `CCCCOC(C)(C)C(=O)Nc1ncnn2c([C@]3(C#N)O[C@H](COC(=O)CC4CCCCCC4)[C@@H](OC(=O)[C@H](N)C(C)(C)C)[C@H]3O)ccc12` [Compound 75, (2R,3S,4R,5R)-5-(4-(2-butoxy-2-methylpropanamido)pyrrolo[2,1-f][1,2,4]triazin-7-yl)-5-cyano-2-((2-cycloheptylacetoxy)methyl)-4-hydroxytetrahydrofuran-3-yl(R)-2-amino-3,3-dimethylbutanoate], the Papp A→B at 90 min was 0.22 ×10⁻⁶ cm/s, the Papp B→A at 90 min was 0.12 ×10⁻⁶ cm/s and the efflux ratio at 90 min was 0.52.

For `CCC(CC)C(=O)Nc1ncnn2c([C@]3(C#N)O[C@H](COC(=O)CC4CCCC4)[C@@H](OC(=O)[C@H](N)C(C)(C)C)[C@H]3O)ccc12` [Compound 76, (2R,3S,4R,5R)-5-cyano-2-((2-cyclopentylacetoxy)methyl)-5-(4-(2-ethylbutanamido)pyrrolo[2,1-f][1,2,4]triazin-7-yl)-4-hydroxytetrahydrofuran-3-yl (R)-2-amino-3,3-dimethylbutanoate], the Papp A→B at 90 min was 2.5 ×10⁻⁶ cm/s, the Papp B→A at 90 min was 2.4 ×10⁻⁶ cm/s and the efflux ratio at 90 min was 1.
